Legend:
Experiment in all cases: selective drug sensitivity score (sDSS, relative to normal bone marrow) (sDSS (score)); higher = more potent and effective on the cell line relative to normal bone marrow cells
Details in all cases: 72 h
KASUMI-10 = test system: KASUMI-10
KASUMI-2 = test system: KASUMI-2
697 = test system: 697
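Also: ALL cell lines in 384-well plates, five doses spanning 10,000-fold, each plate scaled between vehicle and 100 µmol/L benzalkonium chloride controls, sDSS an adapted area-under-curve metric.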

Row | Structure (SMILES) | selective drug sensitivity score (KASUMI-10) | selective drug sensitivity score (KASUMI-2) | selective drug sensitivity score 697
1 | COc1cc(N2CCN(C)CC2)ccc1Nc1nccc(-c2cn(C)c3cnccc23)n1 [AZ191] (top concentration 10000 nM) | 5.38 | -5.12 | 1.08
2 | CN1CC[C@@H](NC(=O)Nc2ccc(C#N)cc2)C[C@@H]1c1nc2ccccc2[nH]1 [Glasdegib] (top concentration 1000 nM) | 0 | 11.9 | 0
3 | COc1cc(CCc2cc(NC(=O)c3ccc(N4CC(C)NC(C)C4)cc3)n[nH]2)cc(OC)c1 (stereo unspecified) [AZD4547] (top concentration 1000 nM) | 1.36 | 0.26 | -0.04
4 | C=CC(=O)Nc1cccc(Oc2nc(Nc3ccc(N4CCN(C)CC4)cc3)nc3ccsc23)c1 [Olmutinib] (top concentration 1000 nM) | -0.02 | -0.02 | -0.02
5 | C=CC(=O)Nc1cc(Nc2nccc(-c3cn(C)c4ccccc34)n2)c(OC)cc1N(C)CCN(C)C [Osimertinib] (top concentration 2500 nM) | 2.18 | -3.52 | -1.42
6 | CNC(=O)c1ccc(N2C(=S)N(c3cnc(C#N)c(C(F)(F)F)c3)C(=O)C23CCC3)cc1F [Apalutamide] (top concentration 10000 nM) | 0 | 0 | 0
7 | O=C(O)CC[C@H]1CC[C@@](c2cc(F)ccc2F)(S(=O)(=O)c2ccc(Cl)cc2)CC1 [MK-0752] (top concentration 1000 nM) | 0 | 0 | 0
8 | CC(C)N(CCCNC(=O)Nc1ccc(C(C)(C)C)cc1)C[C@H]1O[C@@H](n2cc(Br)c3c(N)ncnc32)[C@H](O)[C@@H]1O [SGC0946] (top concentration 10000 nM) | -0.12 | -1.12 | -0.02
9 | CCS(=O)(=O)N1CC(CC#N)(n2cc(-c3ncnc4[nH]ccc34)cn2)C1 [Baricitinib] (top concentration 2500 nM) | -1.94 | -1.94 | -1.94
10 | O=C(NOCCO)c1ccc2cncn2c1Nc1ccc(I)cc1F [GDC-0623] (top concentration 2500 nM) | -3.4 | 0.3 | -2.5
11 | CCCCC(=O)OCC(=O)[C@]1(O)Cc2c(O)c3c(c(O)c2[C@@H](O[C@H]2C[C@H](NC(=O)C(F)(F)F)[C@H](O)[C@H](C)O2)C1)C(=O)c1c(OC)cccc1C3=O [Valrubicin] (top concentration 5000 nM) | 8.48 | 8.38 | 8.58
12 | C=CC[C@@H]1/C=C(\C)C[C@H](C)C[C@H](OC)[C@H]2O[C@@](O)(C(=O)C(=O)N3CCCC[C@H]3C(=O)O[C@H](/C(C)=C/[C@@H]3CC[C@@H](O)[C@H](OC)C3)[C@H](C)[C@@H](O)CC1=O)[C@H](C)C[C@@H]2OC [Tacrolimus] (top concentration 10000 nM) | -0.72 | -0.72 | 2.88
13 | O=C(O)CCCCC(CCSCc1ccccc1)SCc1ccccc1 (stereo unspecified) [Devimistat (CPI-613)] (top concentration 10000 nM) | 0 | 0 | 0
14 | COc1cc2ncnc(Nc3ccc(F)c(Cl)c3)c2cc1OCCCN1CCOCC1 [Gefitinib] (top concentration 10000 nM) | 1.36 | -3.04 | 2.26
15 | O=C(NCc1ccncc1)C12CC3CC(C1)CC(c1ccc(Cl)cc1)(C3)C2 (top concentration 50000 nM) | 0.98 | -0.42 | 3.78
16 | C[C@@H]1CN(C(=O)c2ccc(NC(=O)c3cc(O[C@H](C)c4c(Cl)ccc(F)c4Cl)c(N)nn3)cc2)C[C@H](C)N1 [Ensartinib] (top concentration 1000 nM) | -2.84 | -1.54 | 0.26
17 | CCCCCCCCCCCCCCCCCCOP(=O)([O-])OC1CC[N+](C)(C)CC1 [Perifosine] (top concentration 2500 nM) | -0.36 | 8.74 | -0.36
18 | CCCCOc1nc(N)c2c(n1)N(Cc1cccc(CN3CCCC3)c1)CC(=O)N2 [Vesatolimod] (top concentration 10000 nM) | -3.52 | -3.52 | -3.42
19 | CCc1c(C(=O)C(N)=O)c2c(OCC(=O)O)cccc2n1Cc1ccccc1 [Varespladib] (top concentration 10000 nM) | -0.84 | -0.84 | -0.84
20 | CCCCCCCCc1ccc(CCC(N)(CO)CO)cc1 [Fingolimod] (top concentration 10000 nM) | -0.72 | -0.82 | -0.22
21 | Clc1ccccc1C(c1ccccc1)(c1ccccc1)n1cccn1 [TRAM-34] (top concentration 1000 nM) | -0.08 | -0.08 | -0.08

Row | Structure (SMILES) | selective drug sensitivity score (KASUMI-10) | selective drug sensitivity score (KASUMI-2) | selective drug sensitivity score 697
22 | CCS(=O)(=O)Nc1ccc(Oc2ccc(F)cc2F)c(-c2cn(C)c(=O)c3[nH]ccc23)c1 [Mivebresib] (top concentration 10000 nM) | 10.9 | -14.8 | 16.5
23 | Cc1nc(=O)c2cc(CN(C)c3ccc(C(=O)N[C@@H](CCC(=O)O)C(=O)O)s3)ccc2[nH]1 [Raltitrexed] (top concentration 1000 nM) | 18.1 | 15.8 | 25.8
24 | COc1cc2c(Nc3ccc(Cl)c(Cl)c3F)ncnc2cc1OC[C@@H]1C[C@@H]2CN(C)C[C@@H]2C1 [Tesevatinib] (top concentration 1000 nM) | -1.06 | -1.36 | -0.66
25 | Cc1ccc(-c2cc(C(F)(F)F)nn2-c2ccc(S(N)(=O)=O)cc2)cc1 [Celecoxib] (top concentration 10000 nM) | -0.06 | 7.54 | -0.06
26 | Cc1ccc(NS(=O)(=O)c2cccc(C#N)c2)c2[nH]cc(C#N)c12 [E7820] (top concentration 50000 nM) | 4.62 | 5.82 | 21.7
27 | O=C(Nc1cnn2ccc(N3CCC[C@@H]3c3cc(F)ccc3F)nc12)N1CC[C@H](O)C1 [Larotrectinib] (top concentration 1000 nM) | -0.62 | -0.62 | -0.62
28 | O=C1CCC(N2C(=O)c3ccccc3C2=O)C(=O)N1 (stereo unspecified) [Thalidomide] (top concentration 10000 nM) | -0.14 | -0.14 | -0.14
29 | C[C@]1(O)C[C@@H](c2nc(-c3ccc4ccc(-c5ccccc5)nc4c3)c3c(N)nccn32)C1 [Linsitinib] (top concentration 10000 nM) | -2.28 | -0.28 | -2.68
30 | Cc1ccc(-n2nc(C(C)(C)C)cc2NC(=O)Nc2ccc(OCCN3CCOCC3)c3ccccc23)cc1 [Doramapimod] (top concentration 10000 nM) | 1.16 | -0.24 | 4.96
31 | c1cn2cc(-c3ccc4cn[nH]c4c3)nc(Nc3ccc(N4CCOCC4)cc3)c2n1 [Entospletinib] (top concentration 5000 nM) | -0.64 | -0.64 | 3.16
32 | O=C(Nc1cc(Cl)cc2c1[nH]c1cnccc12)c1cccnc1 [PS-1145] (top concentration 25000 nM) | 3.44 | -0.46 | 0.44
33 | CC[C@@H]1[C@H](F)C(=O)N[C@@H]1COc1nccc2cc(C(N)=O)c(OC)cc12 (top concentration 10000 nM) | 3.68 | -1.32 | 1.88
34 | COc1cc(Nc2c(C#N)cnc3cc(OCCCN4CCN(C)CC4)c(OC)cc23)c(Cl)cc1Cl [Bosutinib] (top concentration 10000 nM) | -1.14 | -2.04 | 5.86
35 | CN1CCN(C2CCN(C(=O)Nc3cc(Oc4ccc(NC(=O)C5(C(=O)Nc6ccc(F)cc6)CC5)c(F)c4)ccn3)CC2)CC1 [Golvatinib] (top concentration 2500 nM) | 3.26 | -0.14 | 1.76
36 | CCOc1ccn(-c2ccc(F)cc2)c(=O)c1C(=O)Nc1ccc(Oc2ccnc(N)c2Cl)c(F)c1 (top concentration 2500 nM) | 2.6 | 0 | 0.4
37 | CC[C@@H]1C(=O)OC[C@@H]1Cc1cncn1C [Pilocarpine] (top concentration 40000 nM) | -1.56 | -1.56 | -1.56
38 | Nc1nc(Nc2ccc3c(c2)CC[C@@H](N2CCCC2)CC3)nn1-c1cc2c(nn1)-c1ccccc1CCC2 [BGB324] (top concentration 10000 nM) | 0.32 | -1.58 | 3.52
39 | C[C@H]1C[C@@H](n2c(Nc3ccc(OC(F)(F)F)cc3)nc3cc(CCC(=O)O)ccc32)CC(C)(C)C1 (top concentration 10000 nM) | -0.14 | -0.14 | -0.14
40 | CC(=O)O[C@H]1C(=O)[C@@]2(C)[C@H]([C@H](OC(=O)c3ccccc3)[C@]3(O)C[C@H](OC(=O)[C@H](O)[C@@H](NC(=O)c4ccccc4)c4ccccc4)C(C)=C1C3(C)C)[C@]1(OC(C)=O)CO[C@@H]1C[C@@H]2O [Paclitaxel] (top concentration 1000 nM) | 11.5 | 18.3 | 22.4
41 | CN(C)C(=O)c1ccc(S(=O)(=O)c2ccc(NC(=O)[C@@](C)(O)C(F)(F)F)c(Cl)c2)cc1 [AZD7545] (top concentration 10000 nM) | -0.2 | 5.3 | 4.3
42 | CN1CCN(C(=O)c2ccc3cc(CCNc4ncnc5ccc(C#N)cc45)ccc3c2)CC1 [Senexin_B] (top concentration 1000 nM) | 4.5 | -0.6 | 2.1

From the supplement of paper PMC8967900
